Measurements from patent US20250154134A1, “COMPOUND AS FAK INHIBITOR AND USE THEREOF” (WIGEN BIOMEDICINE TECHNOLOGY (SHANGHAI) CO., LTD., priority 2022, published 2025).

Tests used:
[1] = target: FAK recombinant protein (Homo sapiens (Human), UniProt Q05397); test: Inhibitory activity against FAK enzyme (HTRF, TK substrate); type: biochemical
Method: A compound serially diluted with DMSO was mixed with a FAK recombinant protein. After the mixture was left to stand at room temperature for 10 min, a biotin-labeled TK substrate (TK) and ATP were added. […] The inhibition percentage and IC50 of the compound were calculated compared to the DMSO control group.

[2] = system: PC3 cells; test: PC3 cell proliferation, 2D activity assay (Cell Titer-Lumi, 72 h); type: cell-based, human
[3] = system: PC3 cells; test: Inhibition of PC3 cell low adsorption (adherent cell count, 4 h); type: cell-based; details: Homo sapiens, PC-3; 4 h treatment; read-out: IC50 against PC3 cell low adsorption
Method: PC3 cells were seeded at 8000 cells/well. 4 h after the cells were treated with a compound, the number of adherent cells was counted. The inhibition percentage and IC50 of the compound were calculated compared to the DMSO group.

[4] = system: PC3 cells; test: PC3 cell proliferation, 3D activity assay (3D culture, 14 days); type: cell-based, human; details: read-out: 3D inhibitory activity against PC3 cells IC50
[5] = Homo sapiens, PC-3, read-out: 2D inhibitory activity against PC3 cells IC50

FAK recombinant protein, sequence (Q05397 whole entry): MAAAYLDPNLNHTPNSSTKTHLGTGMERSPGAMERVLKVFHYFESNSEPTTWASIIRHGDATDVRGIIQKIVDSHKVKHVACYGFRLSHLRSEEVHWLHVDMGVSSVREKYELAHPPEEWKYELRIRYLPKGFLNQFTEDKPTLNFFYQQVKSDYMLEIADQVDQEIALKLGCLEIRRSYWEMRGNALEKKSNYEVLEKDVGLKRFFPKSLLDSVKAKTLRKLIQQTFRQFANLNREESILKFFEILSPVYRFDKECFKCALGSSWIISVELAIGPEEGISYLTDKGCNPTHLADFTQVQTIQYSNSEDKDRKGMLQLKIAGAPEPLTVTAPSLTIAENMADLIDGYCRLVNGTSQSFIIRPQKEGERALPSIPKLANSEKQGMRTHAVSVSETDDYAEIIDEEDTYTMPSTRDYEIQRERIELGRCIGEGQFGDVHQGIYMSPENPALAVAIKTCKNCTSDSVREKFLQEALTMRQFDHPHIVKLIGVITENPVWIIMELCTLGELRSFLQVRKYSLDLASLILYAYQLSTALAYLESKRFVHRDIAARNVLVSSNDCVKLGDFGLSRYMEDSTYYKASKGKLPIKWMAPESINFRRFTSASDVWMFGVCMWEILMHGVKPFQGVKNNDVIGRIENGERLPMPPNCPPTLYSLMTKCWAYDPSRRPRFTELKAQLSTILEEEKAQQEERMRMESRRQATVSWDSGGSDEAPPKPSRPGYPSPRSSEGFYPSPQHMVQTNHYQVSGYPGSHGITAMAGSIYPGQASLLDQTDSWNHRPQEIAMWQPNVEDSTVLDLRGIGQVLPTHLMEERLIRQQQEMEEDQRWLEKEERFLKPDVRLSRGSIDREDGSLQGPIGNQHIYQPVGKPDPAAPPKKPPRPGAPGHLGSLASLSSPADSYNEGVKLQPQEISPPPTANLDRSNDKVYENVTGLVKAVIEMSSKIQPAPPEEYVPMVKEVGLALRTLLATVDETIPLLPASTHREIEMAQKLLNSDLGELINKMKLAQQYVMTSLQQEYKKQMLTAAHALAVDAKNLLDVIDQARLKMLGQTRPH

IC50 [1]	IC50 [2, 5]	IC50 [3]	IC50 ([4]; Homo sapiens, PC-3, 336 h)	IC50 ([2]; read-out: 2D inhibitory activity against PC3 cells IC50)	IC50 [4]	SMILES
< 20 nM	> 2000 nM	21.1 nM	10.8 nM	–	–	CNC(=O)c1ccc(Nc2ncc(C(F)(F)F)c(Oc3cccc4c3C(=O)N(C)C43CC3)n2)cc1 [Compound 1, N-methyl-4-((4-((2′-methyl-3′-oxospiro[cyclopropane-1,1′-isoindolin]-4′-yl)oxy)-5-(trifluoromethyl)pyrimidin-2-yl)amino)benzamide]
< 20 nM	> 2000 nM	2.67 nM	< 5 nM	–	–	COc1cc(C(=O)NC2(C)CCN(C)CC2)ccc1Nc1ncc(C(F)(F)F)c(Oc2cccc3c2C(=O)N(C)C32CC2)n1 [Compound 6]
< 20 nM	> 2000 nM	7.54 nM	0.96 nM	–	–	COc1cc(C(=O)NC2CC3(CCN(C)CC3)C2)c(F)cc1Nc1ncc(C(F)(F)F)c(Oc2cccc3c2C(=O)N(C)C32CC2)n1 [Compound 8, 2-fluoro-5-methoxy-4-((4-((2′-methyl-3′-oxospiro[cyclopropane-1,1′-isoindolin]-4′-yl)oxy)-5-(trifluoromethyl)pyrimidin-2-yl)amino)-N-(7-methyl-7-azaspiro[3.5]nonan-2-yl)benzamide]
< 20 nM	> 2000 nM	11.7 nM	< 5 nM	–	–	COc1cc(C(=O)NC2COC3(CCN(C)C3)C2)ccc1Nc1ncc(C(F)(F)F)c(Oc2cccc3c2C(=O)N(C)C32CC2)n1 (stereo not shown) [Compound 27]
< 20 nM	> 2000 nM	13.4 nM	8.52 nM	–	–	CN1C(=O)c2c(Oc3nc(Nc4ccc5c(c4)CC(=O)N5)ncc3C(F)(F)F)cccc2C12CC2 [Compound 69]
< 20 nM	> 2000 nM	16.4 nM	5.18 nM	–	–	CN1C(=O)c2c(Oc3nc(Nc4ccc5c(c4)CCNC5=O)ncc3C(F)(F)F)cccc2C12CC2 [Compound 71]
< 20 nM	> 10000 nM	27.2 nM	4.88 nM	–	–	COc1cc(N2CCOCC2)ccc1Nc1ncc(C(F)(F)F)c(Oc2cccc3c2C(=O)N(C)C32CC2)n1 [Compound 77]
< 20 nM	> 2000 nM	–	< 5 nM	–	–	COc1cc(N2CCC(N3CCN(C)CC3)CC2)ccc1Nc1ncc(Br)c(Oc2cccc3c2C(=O)N(C)C32CC2)n1 [Compound 182]
< 20 nM	> 2000 nM	–	5 to 50 nM	–	–	COc1cc(N2CCN(C)CC2)c(F)cc1Nc1ncc(Br)c(Oc2cccc3c2C(=O)N(C)C32CC2)n1 [Compound 183]
< 20 nM	> 2000 nM	–	5 to 50 nM	–	–	COc1cc(N2CCN(C)CC2)ccc1Nc1ncc(Br)c(Oc2cccc3c2C(=O)N(C)C32CC2)n1 [Compound 184]
< 20 nM	> 2000 nM	–	< 5 nM	–	–	COCCN1CCN(c2ccc(Nc3ncc(Br)c(Oc4cccc5c4C(=O)N(C)C54CC4)n3)c(OC)c2)CC1 [Compound 185]
< 20 nM	> 2000 nM	–	< 5 nM	–	–	COCCN1CCN(c2cc(OC)c(Nc3ncc(Br)c(Oc4cccc5c4C(=O)N(C)C54CC4)n3)cc2F)CC1 [Compound 186]
< 20 nM	> 2000 nM	–	< 5 nM	–	–	COc1cc(N2CCN(CC(=O)N(C)C)CC2)ccc1Nc1ncc(Br)c(Oc2cccc3c2C(=O)N(C)C32CC2)n1 [Compound 187]
< 20 nM	> 2000 nM	–	5 to 50 nM	–	–	COc1cc(N2CC3(CN(C)C3)C2)ccc1Nc1ncc(Br)c(Oc2cccc3c2C(=O)N(C)C32CC2)n1 [Compound 188]
< 20 nM	> 2000 nM	–	< 5 nM	–	–	COc1cc(N2CCC3(CCN(C)CC3)CC2)ccc1Nc1ncc(Br)c(Oc2cccc3c2C(=O)N(C)C32CC2)n1 [Compound 189]
< 20 nM	> 2000 nM	–	< 5 nM	–	–	COc1cc(N2CCC3(CC2)CN(C)C3)ccc1Nc1ncc(Br)c(Oc2cccc3c2C(=O)N(C)C32CC2)n1 [Compound 190]
< 20 nM	> 2000 nM	–	5 to 50 nM	–	–	COc1cc(N2CCC(N(C)C)CC2)c(F)cc1Nc1ncc(Br)c(Oc2cccc3c2C(=O)N(C)C32CC2)n1 [Compound 191]
< 20 nM	> 2000 nM	–	< 5 nM	–	–	COc1cc(C(=O)NC2CCN(C)CC2)ccc1Nc1ncc(C#N)c(Oc2cccc3c2C(=O)N(C)C32CC2)n1 [Compound 192, 4-((5-cyano-4-((2′-methyl-3′-oxospiro[cyclopropane-1,1′-isoindolin]-4′-yl)oxy)pyrimidin-2-yl)amino)-3-methoxy-N-(1-methylpiperidin-4-yl)benzamide]
< 20 nM	> 2000 nM	–	< 5 nM	–	–	COc1cc(C(=O)NC2CCN(C)CC2)c(F)cc1Nc1ncc(C#N)c(Oc2cccc3c2C(=O)N(C)C32CC2)n1 [Compound 193]
< 20 nM	> 2000 nM	–	< 5 nM	–	–	COc1cc(C(=O)NC2CC3(CCN(C)CC3)C2)c(F)cc1Nc1ncc(C#N)c(Oc2cccc3c2C(=O)N(C)C32CC2)n1 [Compound 194]
< 20 nM	> 2000 nM	–	< 5 nM	–	–	COc1cc(C(=O)NC2CC3(CCN(C)CC3)C2)ccc1Nc1ncc(C#N)c(Oc2cccc3c2C(=O)N(C)C32CC2)n1 [Compound 195]

IC50 [1]	IC50 [2, 5]	IC50 [3]	IC50 ([4]; Homo sapiens, PC-3, 336 h)	IC50 ([2]; read-out: 2D inhibitory activity against PC3 cells IC50)	IC50 [4]	SMILES
< 20 nM	> 2000 nM	–	5 to 50 nM	–	–	COc1cc(C2CCN(C)CC2)ccc1Nc1ncc(C#N)c(Oc2cccc3c2C(=O)N(C)C32CC2)n1 [Compound 198]
< 20 nM	> 2000 nM	–	5 to 50 nM	–	–	COc1cc(C2CCN(C)CC2)c(F)cc1Nc1ncc(C#N)c(Oc2cccc3c2C(=O)N(C)C32CC2)n1 [Compound 199]
< 20 nM	> 2000 nM	–	< 5 nM	–	–	COc1cc(N2CCC(N3CCN(C)CC3)CC2)ccc1Nc1ncc(C#N)c(Oc2cccc3c2C(=O)N(C)C32CC2)n1 [Compound 200]
< 20 nM	> 2000 nM	–	< 5 nM	–	–	COc1cc(N2CCN(C)CC2)c(F)cc1Nc1ncc(C#N)c(Oc2cccc3c2C(=O)N(C)C32CC2)n1 [Compound 201]
< 20 nM	> 2000 nM	–	< 5 nM	–	–	COc1cc(N2CCC3(CC2)CN(C)C3)ccc1Nc1ncc(C#N)c(Oc2cccc3c2C(=O)N(C)C32CC2)n1 [Compound 202]
< 20 nM	–	–	–	> 2000 nM	< 5 nM	COc1cc(N2CC3(CCN(C)CC3)C2)ccc1Nc1ncc(Cl)c(Oc2cccc3c2C(=O)N(C)C32CCC2)n1 [Compound 203, 94′-((5-chloro-2-((2-methoxy-4-(7-methyl-2,7-diazaspiro[3.5]nonan-2-yl)phenyl)amino)pyrimidin-4-yl)oxy)-2′-methylspiro[cyclobutane-1,1′-isoindolin]-3′-one]
< 20 nM	> 2000 nM	–	< 5 nM	–	–	COc1cc(C(=O)NC2CC3(CCN(C)CC3)C2)c(F)cc1Nc1ncc(Cl)c(Oc2cccc3c2C(=O)N(C)C32CCC2)n1 [Compound 204]
< 20 nM	> 2000 nM	–	< 5 nM	–	–	COc1cc(C(=O)NC2CCN(C)CC2)c(F)cc1Nc1ncc(Cl)c(Oc2cccc3c2C(=O)N(C)C32CCC2)n1 [Compound 205]
< 20 nM	> 2000 nM	–	< 5 nM	–	–	COc1cc(N2CC3(CCN(C)CC3)C2)c(F)cc1Nc1ncc(Cl)c(Oc2cccc3c2C(=O)N(C)C32CCC2)n1 [Compound 206]
< 20 nM	> 2000 nM	–	5 to 50 nM	–	–	COc1cc(N2CC3(CCN(C)CC3)C2)ccc1Nc1ncc(Cl)c(Oc2cccc3c2C(=O)N(C)C32CCCC2)n1 [Compound 207]
< 20 nM	> 2000 nM	–	> 50 nM	–	–	COc1cc(C(=O)NC2CC3(CCN(C)CC3)C2)c(F)cc1Nc1ncc(Cl)c(Oc2cccc3c2C(=O)N(C)C32CCCC2)n1 [Compound 208]
< 20 nM	> 2000 nM	–	> 50 nM	–	–	COc1cc(N2CC3(CCN(C)CC3)C2)ccc1Nc1ncc(Cl)c(Oc2cccc3c2C(=O)N(C)C32CCCCC2)n1 [Compound 210]
< 20 nM	> 2000 nM	–	> 50 nM	–	–	COc1cc(N2CC3(CCN(C)CC3)C2)c(F)cc1Nc1ncc(Cl)c(Oc2cccc3c2C(=O)N(C)C32CCCCC2)n1 [Compound 211]
< 20 nM	> 2000 nM	–	> 50 nM	–	–	COc1cc(C(=O)NC2CCN(C)CC2)c(F)cc1Nc1ncc(Cl)c(Oc2cccc3c2C(=O)N(C)C32CCCCC2)n1 [Compound 212]
< 20 nM	> 2000 nM	–	> 50 nM	–	–	COc1cc(N2CC3(CCN(C)CC3)C2)ccc1Nc1ncc(Cl)c(Oc2cccc3c2C(=O)N(C)C32CCOCC2)n1 [Compound 213]
< 20 nM	> 2000 nM	–	> 50 nM	–	–	COc1cc(N2CC3(CCN(C)CC3)C2)c(F)cc1Nc1ncc(Cl)c(Oc2cccc3c2C(=O)N(C)C32CCOCC2)n1 [Compound 214]
< 20 nM	> 2000 nM	–	> 50 nM	–	–	COc1cc(C(=O)NC2CCN(C)CC2)c(F)cc1Nc1ncc(Cl)c(Oc2cccc3c2C(=O)N(C)C32CCOCC2)n1 [Compound 215]
< 20 nM	> 2000 nM	–	5 to 50 nM	–	–	COc1cc(N2CC3(CCN(C)CC3)C2)ccc1Nc1ncc(Cl)c(Oc2cccc3c2C(=O)N(C)C32COC2)n1 [Compound 216]
< 20 nM	> 2000 nM	–	5 to 50 nM	–	–	COc1cc(N2CC3(CCN(C)CC3)C2)c(F)cc1Nc1ncc(Cl)c(Oc2cccc3c2C(=O)N(C)C32COC2)n1 [Compound 217]
< 20 nM	> 2000 nM	–	> 50 nM	–	–	COc1cc(C(=O)NC2CCN(C)CC2)c(F)cc1Nc1ncc(Cl)c(Oc2cccc3c2C(=O)N(C)C32COC2)n1 [Compound 218]
